Laboratory results taken from PubChem BioAssay (NCI).
“And” between values parts separate entries of the source, which are not always exact repeats. Identical values can stand only once.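 Test compounds were applied to cells in 96-well plates for 48 hours at 5 doses. GI50 is the concentration that inhibits growth by half. TGI marks complete inhibition of growth.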

Key:
Experiment in all cases: NCI tumour cell line growth inhibition, 48 h
[1] = system: HCC-2998 colon
[2] = system: A549 NSCLC
[3] = system: K-562 leukemia
[4] = system: TK-10 renal
[5] = system: COLO 205 colon
[6] = system: SF-539 CNS
[7] = system: SK-OV-3 ovarian
[8] = system: SR leukemia
[9] = system: OVCAR-4 ovarian
[10] = system: BT-549 breast
[11] = system: MDA-MB-435
[12] = system: 786-0 renal
[13] = system: ACHN renal
[14] = system: U251 CNS
[15] = system: PC-3 prostate
[16] = system: NCI-H522 lung
[17] = system: RPMI-8226 leukemia
[18] = system: CAKI-1 renal
[19] = system: SK-MEL-2 melanoma
[20] = system: SF-295 CNS
[21] = system: MDA-MB-231 breast
[22] = system: UACC-62 melanoma
[23] = system: KM12 colon
[24] = system: HS 578T breast
[25] = system: SK-MEL-5 melanoma
[26] = system: NCI-H460 lung
[27] = system: MOLT-4 leukemia
[28] = system: A498 renal
[29] = system: MCF7 breast
[30] = system: IGROV1 ovarian
[31] = system: HCT-116 colon
[32] = system: OVCAR-3 ovarian
[33] = system: SW-620 colon
[34] = system: HCT-15 colon
[35] = system: NCI/ADR-RES ovarian
[36] = system: UACC-257 melanoma
[37] = system: HOP-62 NSCLC
[38] = system: EKVX NSCLC
[39] = system: SF-268 CNS
[40] = system: HOP-92 NSCLC
[41] = system: OVCAR-5 ovarian
[42] = system: HT29 colon
[43] = system: UO-31 renal
[44] = system: MALME-3M melanoma
[45] = system: M14 melanoma
[46] = system: NCI-H23 lung
[47] = system: SNB-19 CNS
[48] = system: OVCAR-8 ovarian
[49] = system: SNB-75 CNS
[50] = system: SK-MEL-28 melanoma
[51] = system: NCI-H226 lung
[52] = system: SN12C renal
[53] = system: CCRF-CEM leukemia
[54] = system: DU-145 prostate
[55] = system: HL-60(TB) leukemia
[56] = system: RXF 393 renal
[57] = system: T-47D breast
[58] = system: LOX IMVI melanoma

## O=C(Nc1cc(C(F)(F)F)cc(C(F)(F)F)c1)c1cc(Cl)ccc1O
[1]
  GI50: 307 nM and 349 nM
  TGI: 1330 nM and 3630 nM
[2]
  GI50: 293 nM and 319 nM
  TGI: > 4.32 µM and 12.8 µM
[3]
  GI50: 189 nM and 161 nM
  TGI: > 61.3 µM
[4]
  GI50: 442 nM and 387 nM
  TGI: > 10 µM and 11.1 µM
[5]
  GI50: 696 nM and 1340 nM
  TGI: 2340 nM and 3220 nM
[6]
  GI50: 300 nM and 264 nM
  TGI: 1880 nM and 1590 nM
[7]
  GI50: 185 nM and 181 nM
  TGI: 642 nM and 947 nM
[8]
  GI50: 218 nM and 228 nM
[9]
  GI50: 294 nM and 288 nM
  TGI: > 10 µM and 13.4 µM
[10]
  GI50: 206 nM and 213 nM
  TGI: 714 nM and 712 nM
[11]
  GI50: 288 nM and 284 nM
  TGI: 1310 nM and 1610 nM
[12]
  GI50: 269 nM and 293 nM
  TGI: 881 nM and 1150 nM
[13]
  GI50: 294 nM and 260 nM
  TGI: 1190 nM and 978 nM
[14]
  GI50: 234 nM and 228 nM
  TGI: > 9.5 µM and 7.9 µM
[15]
  GI50: 257 nM and 266 nM
  TGI: > 3.02 µM and 3.78 µM
[16]
  GI50: 186 nM and 214 nM
  TGI: 818 nM and 1900 nM
[17]
  GI50: 116 nM and 155 nM
  TGI: 578 nM and 713 nM
[18]
  GI50: 212 nM and 180 nM
  TGI: 644 nM and 677 nM
[19]
  GI50: 209 nM and 206 nM
  TGI: 589 nM and 981 nM
[20]
  GI50: 179 nM and 173 nM
  TGI: 479 nM and 402 nM
[21]
  GI50: 241 nM and 225 nM
  TGI: > 2170 nM and 2630 nM
[22]
  GI50: 129 nM and 100 nM
  TGI: 668 nM and 595 nM
[23]
  GI50: 318 nM and 312 nM
  TGI: 1140 nM and 1120 nM
[24]
  GI50: 222 nM and 212 nM
  TGI: 807 nM and 821 nM
[25]
  GI50: 63.2 nM and 94 nM
  TGI: 206 nM and 257 nM
[26]
  GI50: 271 nM and 290 nM
  TGI: 1420 nM and 1940 nM
[27]
  GI50: 269 nM and 332 nM
  TGI: 845 nM and 2690 nM
[28]
  GI50: 45 nM and < 14.1 nM
  TGI: 241 nM and 178 nM
[29]
  GI50: 302 nM and 269 nM
  TGI: > 10 µM and 5.26 µM
[30]
  GI50: 271 nM and 357 nM
  TGI: > 2.34 µM and 11.9 µM
[31]
  GI50: 213 nM and 238 nM
  TGI: 999 nM and 1160 nM
[32]
  GI50: 239 nM and 230 nM
  TGI: > 3.54 µM and 9.93 µM
[33]
  GI50: 316 nM and 312 nM
  TGI: 3.26 µM and 10.4 µM
[34]
  GI50: 271 nM and 276 nM
  TGI: 1620 nM and 1490 nM
[35]
  GI50: 227 nM and 257 nM
  TGI: > 2.76 µM and 3.87 µM
[36]
  GI50: 196 nM and 194 nM
  TGI: 750 nM and 1210 nM
[37]
  GI50: 260 nM and 355 nM
  TGI: 1200 nM and 4380 nM
[38]
  GI50: 295 nM and 288 nM
  TGI: > 3.58 µM and 3.43 µM
[39]
  GI50: 210 nM
  TGI: 2100 nM and 2820 nM
[40]
  GI50: 120 nM and 41.2 nM
  TGI: 418 nM and 304 nM
[41]
  GI50: 305 nM and 357 nM
  TGI: > 5.03 µM and 15.9 µM
[42]
  GI50: 339 nM and 401 nM
  TGI: > 10 µM and 12 µM
[43]
  GI50: 246 nM and 224 nM
  TGI: 856 nM and 811 nM
[44]
  GI50: 225 nM and 200 nM
  TGI: 1160 nM and 668 nM
[45]
  GI50: 291 nM and 273 nM
  TGI: 1250 nM and 1540 nM
[46]
  GI50: 218 nM and 263 nM
  TGI: 754 nM and 1340 nM
[47]
  GI50: 291 nM and 233 nM
  TGI: > 10 µM and 12 µM
[48]
  GI50: 278 nM and 285 nM
  TGI: 3.85 µM and 6.08 µM
[49]
  GI50: 159 nM and 172 nM
  TGI: 586 nM
[50]
  GI50: 285 nM and 199 nM
  TGI: 1840 nM and 1310 nM
[51]
  GI50: 262 nM and 317 nM
  TGI: 992 nM and 1590 nM
[52]
  GI50: 224 nM and 202 nM
  TGI: > 2730 nM and 1540 nM
[53]
  GI50: 237 nM and 378 nM
  TGI: 1.3 µM and 7.79 µM
[54]
  GI50: 345 nM and 347 nM
  TGI: > 5.23 µM and 10.8 µM
[55]
  GI50: 201 nM and 239 nM
  TGI: 1690 nM and 641 nM
[56]
  GI50: 245 nM and 190 nM
  TGI: 1160 nM and 673 nM
[57]
  GI50: 150 nM and 194 nM
  TGI: 604 nM and 1240 nM
[58]
  GI50: 316 nM and 366 nM
  TGI: 1510 nM and 2680 nM
